Assay results published in patent US10988459B2 (priority 2015, dated 2021).

These compounds were tested against human RIP1 kinase domain (2-375) (Homo sapiens (Human), UniProt Q13546) (assay: biochemical). Conditions: Table 1; apparent Ki (Morrison tight-binding fit); 50 nM RIP1 kinase domain, 50 uM ATP, 2 hours incubation; read-out: RIP1 Ki.
Format: biochemical
Method in brief: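 50 nM purified kinase domain from baculovirus-infected insect cells, incubated 2 h with compound in 50 mM Hepes pH 7.5, 30 mM MgCl2, 1 mM DTT, 50 uM ATP, 0.002% Brij-35, 0.5% DMSO. ADP formation read by Transcreener FP at 633 nm excitation. Ki^app fitted with the Morrison tight-binding equation.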

Chain of human RIP1 kinase domain (2-375) (Q13546 2-375): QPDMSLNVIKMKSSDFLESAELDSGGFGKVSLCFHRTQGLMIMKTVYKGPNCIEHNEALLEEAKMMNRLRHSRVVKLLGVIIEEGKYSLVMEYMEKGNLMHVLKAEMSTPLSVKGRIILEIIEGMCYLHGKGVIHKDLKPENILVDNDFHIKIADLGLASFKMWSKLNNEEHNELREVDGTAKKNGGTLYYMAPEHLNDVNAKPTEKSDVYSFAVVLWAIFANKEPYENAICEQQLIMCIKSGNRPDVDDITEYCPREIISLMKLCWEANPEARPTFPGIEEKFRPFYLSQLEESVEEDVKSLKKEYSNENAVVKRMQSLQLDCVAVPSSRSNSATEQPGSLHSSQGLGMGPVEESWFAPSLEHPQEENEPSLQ

| Compound | Ki [nM] |
| --- | --- |
| CN1C(=O)[C@@H](NC(=O)c2ncc3ccc(C(F)(F)F)cn23)COc2ccccc21 [Example 35, N-[(3S)-5-methyl-4-oxo-2,3-dihydro-1,5-benzoxazepin-3-yl]-6-(trifluoromethyl)imidazo[1,5-a]pyridine-3-carboxamide] | 8.74 |
| CN1C(=O)[C@@H](NC(=O)c2ncn3ccc(C(F)(F)F)cc23)COc2ccccc21 [Example 37, N-[(3S)-5-methyl-4-oxo-2,3-dihydro-1,5-benzoxazepin-3-yl]-7-(trifluoromethyl)imidazo[1,5-a]pyridine-1-carboxamide] | 5.08 |

Same assay, conditions: Table 5; apparent Ki (Morrison tight-binding fit); 50 nM RIP1 kinase domain, 50 uM ATP, 2 hours incubation; read-out: Ki

| Compound | Ki [nM] |
| --- | --- |
| CN1C(=O)[C@@H](NC(=O)c2ncn(Cc3ccccc3F)n2)CCn2nc(CCN3CC4CC3CO4)cc21 (some centres unmarked) [Example 762] | 182 |
| CN1C(=O)[C@@H](NC(=O)c2ncn(Cc3ccccc3)n2)CCn2nc(CCO)cc21 [Example 766, 1-benzyl-N-[(6S)-2-(2-hydroxyethyl)-4-methyl-5-oxo-7,8-dihydro-6H-pyrazolo[1,5-a][1,3]diazepin-6-yl]-1,2,4-triazole-3-carboxamide] | 84 |

Now from value to compound:

| Ki [nM] | Compound |
| --- | --- |
| 267 | CC[C@]1(C)OCc2cnc(C(=O)N[C@H]3COc4ccccc4N(C)C3=O)cc21 (single isomer, unassigned) [Example 764] |
| 9 | CN1C(=O)[C@@H](NC(=O)c2cc3n(n2)CCC[C@H]3c2ccccc2F)COc2ccccc21 [Example 710, (4S)-4-(2-fluorophenyl)-N-[(3S)-5-methyl-4-oxo-2,3-dihydro-1,5-benzoxazepin-3-yl]-4,5,6,7-tetrahydropyrazolo[1,5-a]pyridine-2-carboxamide] |

Same assay, conditions: human RIP1 kinase domain (2-375), 50 uM ATP, 2 hours incubation, Transcreener ADP assay; read-out: RIP1 Ki

| Compound | Ki [nM] |
| --- | --- |
| Cc1cc2n(n1)CC[C@H](NC(=O)c1ncn(Cc3ccc(F)cc3)n1)C(=O)N2C [Example 164, (S)-N-(2,4-dimethyl-5-oxo-5,6,7,8-tetrahydro-4H-pyrazolo[1,5-a][1,3]diazepin-6-yl)-1-(4-fluorobenzyl)-1H-1,2,4-triazole-3-carboxamide] | 24.5 |
| CN1C(=O)[C@@H](NC(=O)c2nnn3c2CC(c2ccccc2)C3)CCn2nccc21 (stereo partly drawn) [Example 121, N—((S)-4-methyl-5-oxo-5,6,7,8-tetrahydro-4H-pyrazolo[1,5-a][1,3]diazepin-6-yl)-5-phenyl-5,6-dihydro-4H-pyrrolo[1,2-c][1,2,3]triazole-3-carboxamide] | 8700 |

Other lines, results leading:

| Ki [nM] | Compound |
| --- | --- |
| 335 | CN1C(=O)C(NC(=O)c2nnc(Cc3ccccc3)[nH]2)CCCn2cncc21 (centres unmarked) [Example 102, 5-benzyl-N-(1-methyl-2-oxo-1,2,3,4,5,6-hexahydroimidazo[1,5-a][1,3]diazocin-3-yl)-4H-1,2,4-triazole-3-carboxamide] |
| 19.5 | CC(C)n1ncc2cnc(C(=O)N[C@H]3COc4ccccc4N(C)C3=O)nc21 [Example 122, (S)-1-isopropyl-N-(5-methyl-4-oxo-2,3,4,5-tetrahydrobenzo[b][1,4]oxazepin-3-yl)-1H-pyrazolo[3,4-d]pyrimidine-6-carboxamide] |
| 254 | CC(C)n1ncc2c1OC[C@H](NC(=O)c1nnc(Cc3ccccc3)[nH]1)C(=O)N2C [Example 179, (S)-5-benzyl-N-(1-isopropyl-4-methyl-5-oxo-4,5,6,7-tetrahydro-1H-pyrazolo[3,4-b][1,4]oxazepin-6-yl)-4H-1,2,4-triazole-3-carboxamide] |
| 131 | CN1C(=O)[C@@H](NC(=O)c2n[nH]c3c2CC(c2ccc(F)c(F)c2)OC3)COc2ccccc21 (stereo partly drawn) [Example 206, 5-(3,4-difluorophenyl)-N—((S)-5-methyl-4-oxo-2,3,4,5-tetrahydrobenzo[b][1,4]oxazepin-3-yl)-1,4,5,7-tetrahydropyrano[3,4-c]pyrazole-3-carboxamide] |

Same assay, conditions: human RIP1 kinase domain (2-375), Transcreener ADP assay, 50 uM ATP, 2 hours incubation; read-out: RIP1 Ki

| Compound | Ki [nM] |
| --- | --- |
| Cc1nn2c(c1C)N(C)C(=O)[C@@H](NC(=O)c1ncn(Cc3cccc(F)c3F)n1)CC2 [Example 272, (S)-1-(2,3-difluorobenzyl)-N-(2,3,4-trimethyl-5-oxo-5,6,7,8-tetrahydro-4H-pyrazolo[1,5-a][1,3]diazepin-6-yl)-1H-1,2,4-triazole-3-carboxamide] | 45.2 |
| Cc1cc2n(n1)CC[C@H](NC(=O)c1ncn(C(C)c3ccc(F)cc3)n1)C(=O)N2C (stereo partly drawn) [Example 270, N—((S)-2,4-dimethyl-5-oxo-5,6,7,8-tetrahydro-4H-pyrazolo[1,5-a][1,3]diazepin-6-yl)-1-(1-(4-fluorophenyl)ethyl)-1H-1,2,4-triazole-3-carboxamide] | 88.5 |
| CN1C(=O)C(NC(=O)c2ncn(CC3CCOCC3)n2)CCn2nc(C3CC3)cc21 (centres unmarked) [Example 254, N-(2-cyclopropyl-4-methyl-5-oxo-5,6,7,8-tetrahydro-4H-pyrazolo[1,5-a][1,3]diazepin-6-yl)-1-((tetrahydro-2H-pyran-4-yl)methyl)-1H-1,2,4-triazole-3-carboxamide] | 2200 |

Same assay, conditions: tight-binding apparent inhibition constant; human RIP1 kinase domain (2-375) 50 nM, 50 uM ATP, 2 hours; read-out: Ki

| Compound | Ki [nM] |
| --- | --- |
| CN1C(=O)[C@H](NC(=O)c2ncn(Cc3ccc(Cl)cc3)n2)CCn2nc(C3CC3)cc21 (single isomer, unassigned) [Example 671] | 8200 |
| CCc1cc2n(n1)CC[C@H](NC(=O)c1ncn(Cc3ccccc3F)n1)C(=O)N2C [Example 464, (S)—N-(2-ethyl-4-methyl-5-oxo-5,6,7,8-tetrahydro-4H-pyrazolo[1,5-a][1,3]diazepin-6-yl)-1-(2-fluorobenzyl)-1H-1,2,4-triazole-3-carboxamide] | 14 |
| CC[C@H]1C[C@@H](Cn2cnc(C(=O)N[C@H]3CCn4nc(C)cc4N(C)C3=O)n2)C1 [Example 500, N—((S)-2,4-dimethyl-5-oxo-5,6,7,8-tetrahydro-4H-pyrazolo[1,5-a][1,3]diazepin-6-yl)-1-(((1R,3R)-3-ethylcyclobutyl)methyl)-1H-1,2,4-triazole-3-carboxamide] | 36 |
| Cc1cc2n(n1)CC[C@H](NC(=O)c1ncc3cnn(-c4c(F)cccc4F)c3n1)C(=O)N2C [Example 609, 1-(2,6-difluorophenyl)-N-[(6S)-2,4-dimethyl-5-oxo-7,8-dihydro-6H-pyrazolo[1,5-a][1,3]diazepin-6-yl]pyrazolo[3,4-d]pyrimidine-6-carboxamide] | 71 |
| O=C(N[C@H]1COc2cc(F)cc(F)c2NC1=O)c1nc2n(n1)[C@@H](c1ccccc1)CC2 [Example 621, (5R)-5-phenyl-N-[(3S)-6,8-difluoro-4-oxo-3,5-dihydro-2H-1,5-benzoxazepin-3-yl]-6,7-dihydro-5H-pyrrolo[1,2-b][1,2,4]triazole-2-carboxamide] | 3.1 |
| CN1C(=O)[C@@H](NC(=O)c2ncc3c(n2)[C@](C)(CC(F)(F)F)OC3)COc2ccccc21 (racemic) [Example 688, rac-(7S)-7-methyl-N-[rac-(3 S)-5-methyl-4-oxo-2,3-dihydro-1,5-benzoxazepin-3-yl]-7-(2,2,2-trifluoroethyl)-5H-furo[3,4-d]pyrimidine-2-carboxamide] | 43.7 |

The next lines start with the values.

| Ki [nM] | Compound |
| --- | --- |
| 100 | CN1C(=O)[C@@H](NC(=O)c2nc3n(n2)C(c2ccccc2F)CCC3)CCn2nccc21 (stereo partly drawn) [Example 387, 5-(2-fluorophenyl)-N—((S)-4-methyl-5-oxo-5,6,7,8-tetrahydro-4H-pyrazolo[1,5-a][1,3]diazepin-6-yl)-5,6,7,8-tetrahydro-[1,2,4]triazolo[1,5-a]pyridine-2-carboxamide] |
| 31 | CN1C(=O)[C@H](NC(=O)c2ncn(Cc3c(F)cccc3F)n2)CCn2ccnc21 [Example 602, 1-[(2,6-difluorophenyl)methyl]-N-[(7R)-9-methyl-8-oxo-6,7-dihydro-5H-imidazo[1,2-a][1,3]diazepin-7-yl]-1,2,4-triazole-3-carboxamide] |
| 46.1 | O=C(N[C@H]1CCc2cc(F)cc(F)c2NC1=O)c1nc2n(n1)[C@H](C(F)(F)F)CC2 [Example 357, (5S)—N-[(3S)-7,9-difluoro-2-oxo-1,3,4,5-tetrahydro-1-benzazepin-3-yl]-5-(trifluoromethyl)-6,7-dihydro-5H-pyrrolo[1,2-b][1,2,4]triazole-2-carboxamide] |
| 565 | CN1C(=O)[C@@H](NC(=O)c2nc3n(n2)[C@@H](C2CCOCC2)CCC3)COc2ccccc21 (racemic) [Example 409, (R)—N—((S)-5-methyl-4-oxo-2,3,4,5-tetrahydrobenzo[b][1,4]oxazepin-3-yl)-5-(tetrahydro-2H-pyran-4-yl)-5,6,7,8-tetrahydro-[1,2,4]triazolo[1,5-a]pyridine-2-carboxamide] |
| 13.6 | CC(C)[C@@H]1CCCc2nc(C(=O)N[C@H]3COc4ccccc4N(C)C3=O)nn21 (racemic) [Example 414, (S)-5-isopropyl-N—((S)-5-methyl-4-oxo-2,3,4,5-tetrahydrobenzo[b][1,4]oxazepin-3-yl)-5,6,7,8-tetrahydro-[1,2,4]triazolo[1,5-a]pyridine-2-carboxamide] |
| 3980 | CN1C(=O)[C@H](NC(=O)c2ncn(Cc3ccccc3)n2)CCn2nc([C@H]3CC3(F)F)cc21 (racemic) [Example 674, 1-benzyl-N-[rac-(6R)-4-methyl-5-oxo-2-[rac-(1R)-2,2-difluorocyclopropyl]-7,8-dihydro-6H-pyrazolo[1,5-a] [1,3]diazepin-6-yl]-1,2,4-triazole-3-carboxamide] |
| 79 | CN1C(=O)[C@@H](NC(=O)c2ncn(Cc3ccccc3C#N)n2)CCn2nc(C3CC3)cc21 [Example 593] |
| 7.58 | CN1C(=O)[C@@H](NC(=O)c2ncn(Cc3ccc(Cl)cc3)n2)CCn2nc(C3CC3)cc21 (racemic) [Example 677, 1-[(4-chlorophenyl)methyl]-N-[rac-(6S)-2-cyclopropyl-4-methyl-5-oxo-7,8-dihydro-6H-pyrazolo[1,5-a][1,3]diazepin-6-yl]-1,2,4-triazole-3-carboxamide] |
